Data from the supplement of paper PMC10307832.

Assays:
Assay in all cases: relative viability (nuclei count vs DMSO), 5 days (fraction); higher = more cells survive
[1] = compound: CN(NC(=O)CC(=O)NN(C)C(=S)c1ccccc1)C(=S)c1ccccc1 [Elesclomol] + CC(=O)Nc1cccc(-n2c(=O)n(C3CC3)c(=O)c3c(Nc4ccc(I)cc4F)n(C)c(=O)c(C)c32)c1 [Trametinib] (partner 0.02 µM)
How it was run: (§1)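 Lung cancer cell lines in 1536-well plates were dosed by pin tool the day after seeding, either with one drug alone or with a fixed anchor-drug dose plus five library-drug doses (not always all listed) in √10 steps. After 5 days, cells were fixed and their nuclei stained in one step (final 0.05% Triton X-100, 1% formaldehyde, 1 ug/ml Hoechst), then counted on 4× images. Relative viability is the nuclei count in treated wells divided by that in vehicle wells. Values are medians of duplicate plates.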

[2] = compound: CN(NC(=O)CC(=O)NN(C)C(=S)c1ccccc1)C(=S)c1ccccc1 [Elesclomol] + CC1(C)CCC(c2ccc(Cl)cc2)=C(CN2CCN(c3ccc(C(=O)NS(=O)(=O)c4ccc(N[C@H](CCN5CCOCC5)CSc5ccccc5)c(S(=O)(=O)C(F)(F)F)c4)cc3)CC2)C1 [Navitoclax] (partner 0.5 µM)
How it was run: as §1

[3] = compound: CN(NC(=O)CC(=O)NN(C)C(=S)c1ccccc1)C(=S)c1ccccc1 [Elesclomol] + COc1cccc2cc(-c3nc([C@H]4CC[C@H](C(=O)O)CC4)n4ncnc(N)c34)[nH]c12 [OSI-027] (partner 0.5 µM)
How it was run: as §1

[4] = compound: CN(NC(=O)CC(=O)NN(C)C(=S)c1ccccc1)C(=S)c1ccccc1 [Elesclomol] + Cc1cc(Nc2cc(N3CCN(C)CC3)nc(Sc3ccc(NC(=O)C4CC4)cc3)n2)n[nH]1 [Tozasertib] (partner 0.1 µM)
How it was run: as §1

[5] = compound: CN(NC(=O)CC(=O)NN(C)C(=S)c1ccccc1)C(=S)c1ccccc1 [Elesclomol] + O=C(c1cc(Cc2n[nH]c(=O)c3ccccc23)ccc1F)N1CCN(C(=O)C2CC2)CC1 [Olaparib] (partner 8 µM)
How it was run: as §1

Cell Line	relative viability ([1]; first compound 0.003162 µM)	relative viability ([1]; first compound 0.01 µM)	relative viability ([1]; first compound 0.03162 µM)	relative viability ([1]; first compound 0.1 µM)	relative viability ([2]; first compound 0.003162 µM)	relative viability ([2]; first compound 0.01 µM)	relative viability ([2]; first compound 0.03162 µM)	relative viability ([2]; first compound 0.1 µM)	relative viability ([3]; first compound 0.003162 µM)	relative viability ([3]; first compound 0.01 µM)	relative viability ([3]; first compound 0.03162 µM)	relative viability ([3]; first compound 0.1 µM)	relative viability ([4]; first compound 0.003162 µM)	relative viability ([4]; first compound 0.01 µM)	relative viability ([4]; first compound 0.03162 µM)	relative viability ([4]; first compound 0.1 µM)	relative viability ([5]; first compound 0.003162 µM)	relative viability ([5]; first compound 0.01 µM)	relative viability ([5]; first compound 0.03162 µM)	relative viability ([5]; first compound 0.1 µM)
201T	0.707	0.749	0.742	0.682	1.16	1.16	1.23	1.16	0.683	0.587	0.386	0.369	0.984	0.88	0.911	0.536	0.843	0.843	0.844	0.705
A549					0.798	0.181	0.0437	0.03									0.289	0.22	0.189	0.0697
A-427	0.761	0.411	0.236	0.183	0.904	0.827	1	0.499	0.45	0.2	0.3	0.149	0.226	0.186	0.149	0.0996	0.52	0.424	0.232	0.164
ABC-1									0.227	0.19	0.225	0.196	0.193	0.203	0.18	0.187	0.23	0.428	0.248	0.342
BEN	0.915	0.65	0.749	0.395	0.049	0.0566	0.0364	0.0268	0.301	0.256	0.27	0.252	0.592	0.399	0.45	0.402	0.828	0.68	0.656	0.362
CAL-12T	0.265	0.139	0.113	0.114	1	0.243	0.123	0.0625	0.504	0.277	0.139	0.0937	0.268	0.17	0.0901	0.0485	0.64	0.321	0.117	0.0718
COR-L23	0.55	0.22	0.239	0.101	0.9	0.616	0.461	0.0852	0.757	0.408	0.254	0.0774	0.234	0.155	0.15	0.0966	0.314	0.254	0.143	0.0895
COR-L 105	0.465	0.478	0.316	0.311	0.682	0.427	0.421	0.236	0.667	0.365	0.27	0.143	0.385	0.285	0.223	0.142	0.713	0.575	0.365	0.275
ChaGo-K-1	0.932	0.802	0.571	0.15	0.739	0.374	0.258	0.221	0.591	0.462	0.221	0.136	0.223	0.177	0.147	0.163	0.423	0.396	0.232	0.125
EKVX	0.313	0.188	0.144	0.105	0.875	0.658	0.289	0.205	0.767	0.457	0.329	0.185	0.343	0.281	0.199	0.141	0.713	0.364	0.193	0.106
EMC-BAC-2	0.813	0.808		0.4	1.2	1.06	1.06	0.604	0.408	0.225	0.352	0.176	0.307	0.265	0.275	0.213	0.445	0.345	0.381	0.288
EPLC-272H	0.264	0.111	0.09	0.119	1.1		1.03	0.164	0.295		0.304	0.138	0.223		0.331	0.101	0.592	0.157	0.132	0.178
H3255	0.585	0.532	0.328	0.284	0.629	0.457	0.171	0.128	0.538	0.537	0.489	0.421	0.569	0.525	0.405	0.364	0.488	0.456	0.482	0.316
HARA	0.704	0.465	0.189	0.159	1.16	1.17	0.884	0.267	0.524	0.211	0.31	0.0896	0.155	0.108	0.0878	0.0669	0.774	0.524	0.417	0.36
HCC-15	0.351	0.42	0.345	0.158	0.73	0.656	0.439	0.373	0.727	0.412	0.276	0.0961	0.358	0.292	0.204	0.159	0.646	0.631	0.536	0.217
HCC-44	1.14	1.09	1.08	1.05	0.941	0.993	0.987	0.538	0.636	0.198	0.351	0.11	0.897	0.794	0.17	0.194	0.965	0.914	0.976	1
HCC-78	0.7	0.549	0.674	0.722	0.778	0.755	0.793	0.627	0.356	0.399	0.364	0.322	0.378	0.426	0.399	0.483	0.735	0.574	0.641	0.945
HCC-366	0.383	0.311	0.114	0.0129	1.06	1.07	1.02	0.137	1.05	0.139	0.823	0.0338	0.158	0.0679	0.0952	0.0212	0.369	0.31	0.108	0.0162

Cell Line	relative viability ([1]; first compound 0.003162 µM)	relative viability ([1]; first compound 0.01 µM)	relative viability ([1]; first compound 0.03162 µM)	relative viability ([1]; first compound 0.1 µM)	relative viability ([2]; first compound 0.003162 µM)	relative viability ([2]; first compound 0.01 µM)	relative viability ([2]; first compound 0.03162 µM)	relative viability ([2]; first compound 0.1 µM)	relative viability ([3]; first compound 0.003162 µM)	relative viability ([3]; first compound 0.01 µM)	relative viability ([3]; first compound 0.03162 µM)	relative viability ([3]; first compound 0.1 µM)	relative viability ([4]; first compound 0.003162 µM)	relative viability ([4]; first compound 0.01 µM)	relative viability ([4]; first compound 0.03162 µM)	relative viability ([4]; first compound 0.1 µM)	relative viability ([5]; first compound 0.003162 µM)	relative viability ([5]; first compound 0.01 µM)	relative viability ([5]; first compound 0.03162 µM)	relative viability ([5]; first compound 0.1 µM)
HCC-827	0.571	0.442	0.555	0.504	1.02	0.995	1	0.756	0.741	0.758	0.722	0.532	0.432	0.4	0.421	0.355	0.58	0.522	0.672	0.475
HOP-62	0.397	0.385	0.386	0.237	0.904	0.553	0.647	0.302	0.823	0.717	0.701	0.316	0.359	0.305	0.277	0.141	0.487	0.191	0.0744	0.08
IA-LM					0.415	0.133	0.0436	0.0194									0.892	0.526	0.181	0.115
LC-2-ad	0.888	0.811	0.272	0.197	0.521	0.213	0.062	0.099	0.52	0.231	0.273	0.276	0.394	0.274	0.277	0.231	0.722	0.622	0.277	0.197
LCLC-97TM1	0.198	0.192	0.195	0.0969	0.368	0.298	0.253	0.115	0.549	0.164	0.49	0.15	0.196	0.148	0.178	0.153	0.402	0.295	0.379	0.0862
LCLC-103H	0.637	0.671	0.686	0.683					0.461	0.409	0.463	0.237	0.477	0.377	0.426	0.202	0.724	0.737	0.815	0.639
LK-2	0.468	0.454	0.428	0.115	0.671	0.247	0.142	0.115	0.232	0.224	0.179	0.116	0.172	0.166	0.153	0.12	0.65	0.503	0.332	0.0869
LOU-NH91	0.814	0.733	0.769	0.643	0.672	0.465	0.307	0.282	0.786	0.701	0.595	0.714	0.631	0.575	0.581	0.568	0.898	0.825	0.829	0.606
LU99A	0.618	0.371	0.58	0.339	0.79		0.881	0.132	0.309	0.259	0.295	0.223	0.305	0.245	0.274	0.165	0.286	0.223	0.247	0.173
LXF-289	0.676	0.65	0.663	0.423	0.851	0.924	0.875	0.575	0.82	0.328	0.803	0.589	0.193	0.17	0.188	0.174	1.11	1.01	0.939	0.544
NCI-H358	0.107	0.103	0.0862	0.0746					0.276	0.116	0.0873	0.087	0.0718	0.0649	0.0613	0.0545	0.758	0.346	0.107	0.138
NCI-H522	0.698	0.792	0.821	0.403					0.716	0.62	0.634	0.457	0.563	0.608	0.567	0.465	0.617	0.812	0.618	0.431
NCI-H650	1.02	0.709	0.265	0.191					0.555	0.382	0.229	0.254	0.737	0.351	0.222	0.192	0.426	0.319	0.204	0.241
NCI-H661	0.565	0.404	0.314	0.244					0.617	0.283	0.242	0.168	0.356	0.3	0.245	0.213	0.702	0.464	0.271	0.186
NCI-H1563									0.647	0.606	0.52	0.459								
NCI-H1703					0.141	0.0995	0.116	0.107									0.173	0.0985	0.093	0.0575
NCI-H1792	0.367		0.366	0.267	0.608	0.566	0.504	0.628	0.724	0.547	0.67	0.61					0.5		0.395	0.169
SW 900	0.902	0.399	0.197	0.14					0.615	0.287	0.121	0.0545	0.534	0.3	0.121	0.146	0.774	0.596	0.264	0.0917
